Source: patent US5807671A (priority 1995, dated 1998)

Tests used:
[1] = target: BuChE L^286 K (Homo sapiens, UniProt P06276, L314K); experiment: biochemical; assay type: biochemical
[2] = human, in vivo, iv; cited from earlier work
[3] = tested on: BuChE F^329 R; assay type: biochemical, human
[4] = tested on: BuChE S^425 P; assay type: biochemical, human
[5] = target: diisopropylphosphoryl-BuChE (Homo sapiens, UniProt P06276); experiment: biochemical
[6] = tested on: BuChE F^329 D; assay type: biochemical, human
[7] = target: diisopropylphosphoryl-Chimera; assay type: biochemical, human
[8] = tested on: BuChE D^70 G + Y^114 H + S^425 P; assay type: biochemical, human
[9] = target: purified diethylphosphoryl-BuChE; details: cited from earlier work
[10] = tested on: BuChE D^70 G + Y^114 H; assay type: biochemical, human
[11] = tested on: BuChE F^329 C; assay type: biochemical, human
[12] = tested on: BuChE L^286 D; assay type: biochemical, human
[13] = target: diisopropylphosphoryl-AChE (E6) (Homo sapiens, UniProt P22303)
Sequence of diisopropylphosphoryl-AChE (E6) (P22303 32-614): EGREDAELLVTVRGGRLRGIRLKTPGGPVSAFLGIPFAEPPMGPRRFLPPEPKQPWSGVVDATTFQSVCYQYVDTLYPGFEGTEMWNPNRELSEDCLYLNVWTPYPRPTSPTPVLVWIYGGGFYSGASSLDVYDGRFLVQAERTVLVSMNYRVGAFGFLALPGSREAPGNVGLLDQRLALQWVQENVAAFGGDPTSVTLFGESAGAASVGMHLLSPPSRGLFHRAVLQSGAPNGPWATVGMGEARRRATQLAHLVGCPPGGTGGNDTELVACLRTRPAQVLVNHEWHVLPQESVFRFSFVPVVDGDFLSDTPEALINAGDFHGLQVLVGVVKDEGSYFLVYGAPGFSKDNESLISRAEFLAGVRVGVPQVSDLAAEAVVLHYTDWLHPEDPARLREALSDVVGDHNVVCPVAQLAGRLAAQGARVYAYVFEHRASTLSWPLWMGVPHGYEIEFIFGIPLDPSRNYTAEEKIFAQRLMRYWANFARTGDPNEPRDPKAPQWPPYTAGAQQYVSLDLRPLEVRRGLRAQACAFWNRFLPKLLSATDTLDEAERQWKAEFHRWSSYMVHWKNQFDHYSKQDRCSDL

[14] = tested on: BuChE L^286 Q; assay type: biochemical, human
[15] = tested on: BuChE D^70 G; assay type: biochemical, human
[16] = tested on: BuChE F^329 Q; assay type: biochemical, human
[17] = target: diisopropylphosphoryl-AChE (E5) (Homo sapiens, UniProt P22303)
Sequence of diisopropylphosphoryl-AChE (E5) (P22303-4 with tags, fused parts or gaps limits assumed): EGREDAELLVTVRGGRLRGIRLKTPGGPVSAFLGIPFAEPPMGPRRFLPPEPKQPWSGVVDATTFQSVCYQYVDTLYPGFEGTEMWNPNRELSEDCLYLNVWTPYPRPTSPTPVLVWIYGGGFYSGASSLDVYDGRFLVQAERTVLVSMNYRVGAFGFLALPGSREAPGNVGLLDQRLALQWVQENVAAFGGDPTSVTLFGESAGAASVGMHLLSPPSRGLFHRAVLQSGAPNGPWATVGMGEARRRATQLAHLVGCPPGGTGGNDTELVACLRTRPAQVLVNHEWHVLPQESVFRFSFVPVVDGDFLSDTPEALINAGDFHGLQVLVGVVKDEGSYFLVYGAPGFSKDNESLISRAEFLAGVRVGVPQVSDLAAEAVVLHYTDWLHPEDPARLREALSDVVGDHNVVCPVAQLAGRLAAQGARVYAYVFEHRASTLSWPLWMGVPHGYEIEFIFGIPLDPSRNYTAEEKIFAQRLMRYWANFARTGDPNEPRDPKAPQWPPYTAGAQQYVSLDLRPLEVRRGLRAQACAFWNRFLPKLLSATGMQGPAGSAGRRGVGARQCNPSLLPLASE

[18] = tested on: BuChE D^70 G + S^425 P; assay type: biochemical, human
[19] = tested on: BuChE L^286 R; assay type: biochemical, human

Sequence of BuChE L^286 K (P06276 29-602 L314K limits assumed): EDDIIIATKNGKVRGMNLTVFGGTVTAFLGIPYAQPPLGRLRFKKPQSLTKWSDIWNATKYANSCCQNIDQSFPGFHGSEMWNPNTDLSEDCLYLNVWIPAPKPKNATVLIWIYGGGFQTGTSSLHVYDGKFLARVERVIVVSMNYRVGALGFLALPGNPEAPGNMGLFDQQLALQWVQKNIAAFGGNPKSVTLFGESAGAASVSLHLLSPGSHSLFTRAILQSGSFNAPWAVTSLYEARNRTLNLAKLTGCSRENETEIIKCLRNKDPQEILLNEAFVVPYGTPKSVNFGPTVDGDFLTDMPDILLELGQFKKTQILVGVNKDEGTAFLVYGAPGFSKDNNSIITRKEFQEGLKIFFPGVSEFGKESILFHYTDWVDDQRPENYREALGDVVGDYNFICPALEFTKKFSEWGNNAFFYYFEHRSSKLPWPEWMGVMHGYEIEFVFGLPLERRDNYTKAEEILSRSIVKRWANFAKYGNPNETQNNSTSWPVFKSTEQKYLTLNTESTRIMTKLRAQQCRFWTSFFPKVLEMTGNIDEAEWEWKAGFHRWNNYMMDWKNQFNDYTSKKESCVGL
Sequence of diisopropylphosphoryl-BuChE (P06276 29-602): as the sequence (P06276 29-602 L314K limits assumed) above, with K286L counted along it

C[n+]1ccccc1C=NO [PAM, Pyridine-2-aldoxime methiodide]
Kd [1]: > 5000 µM
Kr × 10^3 [1]: 35 ± 27
k'r × 10^3 [1]: 4 ± 1
reduction in the pseudo-first order rate constant for reactivation [1]: 40 fold
Cmax [2]: ≤ 40 µM
k'r × 10^3 [3]: 43
k'r × 10^3 [4]: 134 ± 8
Kd [5]: 300 µM
Kr × 10^3 [5]: 220 ± 60
k'r × 10^3 [5]: 150 ± 30
pseudo-first order rate constant for reactivation of DFP-inhibited BuChE, higher than AChE [5]: 25 fold
k'r × 10^3 [6]: 8 ± 1
Kd [7]: 340 ± 130 µM
Kr × 10^3 [7]: 48 ± 20
k'r × 10^3 [7]: 40 ± 18
reactivation rate constant lower than that of native BuChE [7]: 5 fold
k'r × 10^3 [8]: 4 ± 1
Kd [9]: 200 µM
k'r × 10^3 [10]: 12 ± 5
k'r × 10^3 [11]: 14 ± 2
k'r × 10^3 [12]: 120 ± 30
Kr × 10^3 [13]: 7 ± 3
k'r × 10^3 [13]: 6 ± 2
k'r × 10^3 [14]: 120 ± 20
k'r × 10^3 [15]: 32 ± 4
reactivation rate lower than wild-type BuChE [15]: 5 fold
k'r × 10^3 [16]: 44 ± 15
Kr × 10^3 [17]: 10 ± 5
k'r × 10^3 [17]: 8 ± 3
k'r × 10^3 [18]: 11
k'r × 10^3 [19]: 6 ± 3
